Data reported in patent US20250368923A1, “PRE-MOISTENED ARTICLES FOR REFRESHING CLOTHING IN THE DRYER” (The Clorox Company, priority 2024, published 2025).

assay: pKa and acid-form fraction of lactic acid; type: physicochemical; conditions: pH of 2.2
Excerpt: In some example embodiments of formulations including an allergen neutralizing agent, the pH of the formulations can be kept low. A low pH can enhance the organic acid efficacy (e.g., lactic acid efficacy) in neutralization of airborne allergens. Typically, pH is kept a least 1 unit below pKa of the organic acid to ensure the majority (e.g., at least 90%) of acid stays in the active (conjugate acid) form. […].

| Compound | fraction of lactic acid in the acidic form |
| --- | --- |
| CC(O)C(=O)O (centres unmarked) [lactic acid] | at least 95% |

assay: not given; conditions: cited from earlier work

| Compound | Solubility in water (g of compound in 100 g of water at ~20° C.) |
| --- | --- |
| CCCCCC(=O)O [hexanoic acid] | 1.03 g of compound in 100 g of water |

same assay, conditions: ~20° C.; cited from earlier work

| Compound | Solubility in water (g of compound in 100 g of water at ~20° C.) |
| --- | --- |
| O=C(O)/C=C/C(=O)O [fumaric acid] | 0.7 g of compound in 100 g of water |
| CCCCCCC(=O)O [heptanoic acid] | 0.2 g of compound in 100 g of water |
| CC(=O)CCC(=O)O [levulinic acid] | 79.13 g of compound in 100 g of water |
| O=C(O)/C=C\C(=O)O [maleic acid] | 47.88 g of compound in 100 g of water |
| O=C(O)CC(O)C(=O)O (centres unmarked) [malic acid] | 64.7 g of compound in 100 g of water |
| CS(=O)(=O)O [methane sulfonic acid] | 100 g of compound in 100 g of water |
| CC(=O)C(=O)O [pyruvic acid] | 100 g of compound in 100 g of water |
| C/C=C/C=C/C(=O)O [sorbic acid] | 0.156 g of compound in 100 g of water |
| CCCCC(=O)O [valeric acid] | 3.75 g of compound in 100 g of water |
